Experimental data from patent US9345247B2, “Azaindole carboxylic acid amides and azaindole thiocarboxylic acid amides for use as insecticides and acaricides” (BAYER CROPSCIENCE AG, priority 2012, dated 2016).

Test system: Ctenocephalides felis
Assay: Ctenocephalides felis; oral (CTECFE)
Assay type: in vivo
Conditions: 100 ppm, oral in cattle blood, after 2 days
Experimental: Ctenocephalides felis; Oral (CTECFE)
To produce a suitable active compound formulation, 10 mg of active compound are mixed with 0.5 ml of dimethyl sulphoxide. A portion of the concentrate is diluted with citrated cattle blood, and the desired concentration is prepared.
About 20 unfed adult fleas (Ctenocephalides felis) are placed into a chamber which is closed at the top and bottom with gauze. A metal cylinder whose bottom end is closed with parafilm is placed onto the chamber. The cylinder contains the blood/active compound preparation, which can be imbibed by the fleas through the parafilm membrane.
After 2 days, the kill in % is determined 100% means that all fleas have been killed; 0% means that none of the fleas have been killed.

Compound | efficacy (kill) [%]
CCn1c(C(=O)NC(c2cccc(C(F)(F)F)c2)C(F)(F)F)cc2cc(C(=O)NC3(C#N)CC3)c(C)nc21 (centres unmarked) [Compound 6] | 100
CCn1c(C(=O)NC(c2ccc(F)c(Cl)c2)C(F)(F)F)cc2cc(C(=O)NC3(C#N)CC3)c(C)nc21 (centres unmarked) [Compound 10] | 100
CCn1c(C(=O)NC(c2cccc(C(F)(F)F)c2)C(F)(F)F)cc2cc(C(=O)NC3(C#N)CC3)c(Cl)nc21 (centres unmarked) [Compound 11] | 100
CCn1c(C(=O)NC(c2ccc(F)c(Cl)c2)C(F)(F)F)cc2cc(C(=O)NC3(C#N)CC3)c(Cl)nc21 (centres unmarked) [Compound 26] | 100

Test system: caterpillars of the armyworm (Spodoptera frugiperda)
Assay: Spodoptera frugiperda spray test (SPODFR)
Assay type: in vivo
Conditions: 100 g/ha, spray, after 7 days
Experimental: Spodoptera frugiperda—Spray Test (SPODFR)
(§1) To produce a suitable active compound formulation, 1 part by weight of active compound is mixed with the stated amounts of solvent and emulsifier, and the concentrate is diluted with emulsifier-containing water to the desired concentration.
Leaf discs of maize (Zea mays) are sprayed with an active compound formulation of the desired concentration and, after drying, populated with caterpillars of the armyworm (Spodoptera frugiperda).
After 7 days, the efficacy in % is determined. 100% means that all the caterpillars have been killed; 0% means that no caterpillars have been killed.
To produce a suitable preparation of active compound, 1 part by weight of active compound is mixed with the stated amounts of solvent and emulsifier, and the concentrate is diluted with emulsifier-containing water to the desired concentration.
Leaf discs of maize (Zea mays) are sprayed with an active compound preparation of the desired concentration and, after drying, populated with caterpillars of the armyworm (Spodoptera frugiperda).
After the stated period of time, the effect in % is determined. 100% means that all the caterpillars have been killed; 0% means that no caterpillars have been killed.

Compound | efficacy [%]
CCn1c(C(=O)NC(c2cccc(C(F)(F)F)c2)C(F)(F)F)cc2cc(C(=O)NC3(C#N)CC3)c(C)nc21 (centres unmarked) [Compound 6] | 100
CCn1c(C(=O)NC(c2ccc(F)c(Cl)c2)C(F)(F)F)cc2cc(C(=O)NC3(C#N)CC3)c(C)nc21 (centres unmarked) [Compound 10] | 100
CCn1c(C(=O)NC(c2cccc(C(F)(F)F)c2)C(F)(F)F)cc2cc(C(=O)NC3(C#N)CC3)c(Cl)nc21 (centres unmarked) [Compound 11] | 100
CCn1c(C(=O)NC(c2ccc(F)c(Cl)c2)C(F)(F)F)cc2cc(C(=O)NC3(C#N)CC3)c(Cl)nc21 (centres unmarked) [Compound 26] | 100
CCn1c(C(=O)NC(c2ccc(F)c(C(F)(F)F)c2)C(F)(F)F)cc2cc(C(=O)NC3(C#N)CC3)c(C)nc21 (centres unmarked) [Compound 75] | 100

Test system: Boophilus microplus
Assay: Boophilus microplus test (BOOPMI injection)
Assay type: in vivo
Conditions: 20 μg/animal, after 7 days
Experimental: Boophilus microplus Test (BOOPMI Injection) [table] To produce a suitable active compound formulation, 10 mg of active compound are mixed with 0.5 ml of solvent and the concentrate is diluted with solvent to the desired concentration. The active compound solution is injected into the abdomen (Boophilus microplus), and the animals are transferred into dishes and stored in a climate-controlled room. After 7 days, the efficacy in % is determined. The activity is assessed by laying of fertile eggs. 100% means that none of the ticks has laid any fertile eggs.

Compound | efficacy (laying of fertile eggs) [%]
CCn1c(C(=O)NC(c2cccc(C(F)(F)F)c2)C(F)(F)F)cc2cc(C(=O)NC3(C#N)CC3)c(C)nc21 (centres unmarked) [Compound 6] | 100
CCn1c(C(=O)NC(c2ccc(F)c(Cl)c2)C(F)(F)F)cc2cc(C(=O)NC3(C#N)CC3)c(C)nc21 (centres unmarked) [Compound 10] | 100
CCn1c(C(=O)NC(c2cccc(C(F)(F)F)c2)C(F)(F)F)cc2cc(C(=O)NC3(C#N)CC3)c(Cl)nc21 (centres unmarked) [Compound 11] | 100
CCn1c(C(=O)NC(c2ccc(F)c(Cl)c2)C(F)(F)F)cc2cc(C(=O)NC3(C#N)CC3)c(Cl)nc21 (centres unmarked) [Compound 26] | 100

Test system: Lucilia cuprina larvae
Assay: Lucilia cuprina test (LUCICU)
Assay type: in vivo
Conditions: 100 ppm, after 2 days
Experimental: (§2) Lucilia cuprina Test (LUCICU) [table] To produce a suitable active compound formulation, 10 mg of active compound are mixed with 0.5 ml of dimethyl sulfoxide, and the concentrate is diluted with water to the desired concentration. Vessels containing horse meat treated with the active compound formulation of the desired concentration are populated with about 20 Lucilia cuprina larvae. After 2 days, the kill in % is determined 100% means that all the larvae have been killed; 0% means that none of the larvae have been killed.

Compound | efficacy (kill) [%]
CCn1c(C(=O)NC(c2cccc(C(F)(F)F)c2)C(F)(F)F)cc2cc(C(=O)NC3(C#N)CC3)c(C)nc21 (centres unmarked) [Compound 6] | 100
CCn1c(C(=O)NC(c2ccc(F)c(Cl)c2)C(F)(F)F)cc2cc(C(=O)NC3(C#N)CC3)c(C)nc21 (centres unmarked) [Compound 10] | 100
CCn1c(C(=O)NC(c2cccc(C(F)(F)F)c2)C(F)(F)F)cc2cc(C(=O)NC3(C#N)CC3)c(Cl)nc21 (centres unmarked) [Compound 11] | 100
CCn1c(C(=O)NC(c2ccc(F)c(Cl)c2)C(F)(F)F)cc2cc(C(=O)NC3(C#N)CC3)c(Cl)nc21 (centres unmarked) [Compound 26] | 100

Test system: greenhouse red spider mite (Tetranychus urticae)
Assay: Tetranychus urticae spray test, OP-resistant (TETRUR)
Assay type: in vivo
Conditions: 100 g/ha, spray, after 6 days
Experimental: as §1
Discs of bean leaves (Phaseolus vulgaris) infested by all stages of the greenhouse red spider mite (Tetranychus urticae) are sprayed with an active compound formulation of the desired concentration.
After 6 days, the efficacy in % is determined 100% means that all the spider mites have been killed; 0% means that none of the spider mites have been killed. […]

Compound | efficacy [%]
CCn1c(C(=O)NC(c2cccc(C(F)(F)F)c2)C(F)(F)F)cc2cc(C(=O)NC3(C#N)CC3)c(C)nc21 (centres unmarked) [Compound 6] | 90
CCn1c(C(=O)NC(c2ccc(F)c(Cl)c2)C(F)(F)F)cc2cc(C(=O)NC3(C#N)CC3)c(C)nc21 (centres unmarked) [Compound 10] | 100
CCn1c(C(=O)NC(c2cccc(C(F)(F)F)c2)C(F)(F)F)cc2cc(C(=O)NC3(C#N)CC3)c(Cl)nc21 (centres unmarked) [Compound 11] | 100
CCn1c(C(=O)NC(c2ccc(F)c(Cl)c2)C(F)(F)F)cc2cc(C(=O)NC3(C#N)CC3)c(Cl)nc21 (centres unmarked) [Compound 26] | 100
CCn1c(C(=O)NC(c2ccc(F)c(C(F)(F)F)c2)C(F)(F)F)cc2cc(C(=O)NC3(C#N)CC3)c(C)nc21 (centres unmarked) [Compound 75] | 100

Test system: larvae of the mustard beetle (Phaedon cochleariae)
Assay: Phaedon cochleariae spray test (PHAECO)
Assay type: in vivo
Conditions: 100 g/ha, spray, after 7 days
How it was run: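 Chinese cabbage (Brassica pekinensis) leaf discs sprayed with compound in emulsifier-containing water at the desired concentration, dried, then infested with larvae. Efficacy scored after 7 days as % larvae killed (100% = all dead, 0% = none).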

Compound | efficacy [%]
CCn1c(C(=O)NC(c2cccc(C(F)(F)F)c2)C(F)(F)F)cc2cc(C(=O)NC3(C#N)CC3)c(C)nc21 (centres unmarked) [Compound 6] | 100
CCn1c(C(=O)NC(c2ccc(F)c(Cl)c2)C(F)(F)F)cc2cc(C(=O)NC3(C#N)CC3)c(C)nc21 (centres unmarked) [Compound 10] | 100
CCn1c(C(=O)NC(c2cccc(C(F)(F)F)c2)C(F)(F)F)cc2cc(C(=O)NC3(C#N)CC3)c(Cl)nc21 (centres unmarked) [Compound 11] | 100
CCn1c(C(=O)NC(c2cccc(C(F)(F)F)c2)C(F)(F)F)cc2cc(C(=O)NC3CCC3)c(Cl)nc21 (centres unmarked) [Compound 15] | 100
CCn1c(C(=O)NC(c2ccc(F)c(Cl)c2)C(F)(F)F)cc2cc(C(=O)NC3(C#N)CC3)c(Cl)nc21 (centres unmarked) [Compound 26] | 100
CCn1c(C(=O)NC(c2ccc(F)c(C(F)(F)F)c2)C(F)(F)F)cc2cc(C(=O)NC3(C#N)CC3)c(C)nc21 (centres unmarked) [Compound 75] | 100

Test system: not listed separately
Assay: log P by HPLC on reversed-phase column (C18), EEC directive 79/831 Annex V.A8
Assay type: physicochemical
Conditions: HPLC, acidic range pH 2.7, 43° C.
How it was run: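 log P determined per EEC directive 79/831 Annex V.A8 by reversed-phase C18 HPLC at 43 °C, calibrated with unbranched alkan-2-ones (C3–C16) of known log P. Acidic-range determination at pH 2.7 with 0.1% formic acid acetonitrile/water, linear 10–95% acetonitrile gradient.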

Compound | log p
CCn1c(C(=O)NC(c2cccc(C(F)(F)F)c2)C(F)(F)F)cc2cc(C(=O)NC3(C#N)CC3)c(C)nc21 (centres unmarked) [Compound 6] | 3.53
CCn1c(C(=O)NC(c2ccc(F)c(Cl)c2)C(F)(F)F)cc2cc(C(=O)NC3(C#N)CC3)c(C)nc21 (centres unmarked) [Compound 10] | 3.51
CCn1c(C(=O)NC(c2cccc(C(F)(F)F)c2)C(F)(F)F)cc2cc(C(=O)NC3(C#N)CC3)c(Cl)nc21 (centres unmarked) [Compound 11] | 3.68
CCn1c(C(=O)NC(c2cccc(C(F)(F)F)c2)C(F)(F)F)cc2cc(C(=O)NC3CCC3)c(Cl)nc21 (centres unmarked) [Compound 15] | 4.12
CCn1c(C(=O)NC(c2ccc(F)c(Cl)c2)C(F)(F)F)cc2cc(C(=O)NC3(C#N)CC3)c(Cl)nc21 (centres unmarked) [Compound 26] | 3.62
CCn1c(C(=O)NC(c2ccc(F)c(C(F)(F)F)c2)C(F)(F)F)cc2cc(C(=O)NC3(C#N)CC3)c(C)nc21 (centres unmarked) [Compound 75] | 3.64

Test system: adult Musca domestica
Assay: Musca domestica test (MUSCDO)
Assay type: in vivo
Conditions: 100 ppm, after 2 days
Experimental: as §2, with “Musca domestica” for “Lucilia cuprina”, “(MUSCDO)” for “(LUCICU)”, “a sponge” for “horse meat”, “adult Musca domestica.” for “about 20 Lucilia cuprina larvae.”, “flies” for “the larvae”, “no flies” for “none of the larvae”

Compound | efficacy (kill) [%]
CCn1c(C(=O)NC(c2cccc(C(F)(F)F)c2)C(F)(F)F)cc2cc(C(=O)NC3(C#N)CC3)c(C)nc21 (centres unmarked) [Compound 6] | 100
CCn1c(C(=O)NC(c2ccc(F)c(Cl)c2)C(F)(F)F)cc2cc(C(=O)NC3(C#N)CC3)c(C)nc21 (centres unmarked) [Compound 10] | 100
CCn1c(C(=O)NC(c2cccc(C(F)(F)F)c2)C(F)(F)F)cc2cc(C(=O)NC3(C#N)CC3)c(Cl)nc21 (centres unmarked) [Compound 11] | 100
CCn1c(C(=O)NC(c2ccc(F)c(Cl)c2)C(F)(F)F)cc2cc(C(=O)NC3(C#N)CC3)c(Cl)nc21 (centres unmarked) [Compound 26] | 100

Test system: green peach aphid (Myzus persicae)
Assay: Myzus persicae spray test (MYZUPE)
Assay type: in vivo
Conditions: 100 g/ha, after 6 days
Experimental: Myzus persicae-Spray Test (MYZUPE) [table] To produce a suitable active compound formulation, 1 part by weight of active compound is mixed with the stated amounts of solvent and emulsifier, and the concentrate is diluted with emulsifier-containing water to the desired concentration. Discs of Chinese cabbage leaves (Brassica pekinensis) infested by all stages of the green peach aphid (Myzus persicae) are sprayed with an active compound formulation of the desired concentration. After 6 days, the efficacy in % is determined 100% means that all the aphids have been killed; 0% means that none of the aphids have been killed.

Compound | efficacy [%]
CCn1c(C(=O)NC(c2cccc(C(F)(F)F)c2)C(F)(F)F)cc2cc(C(=O)NC3(C#N)CC3)c(C)nc21 (centres unmarked) [Compound 6] | 100
CCn1c(C(=O)NC(c2ccc(F)c(Cl)c2)C(F)(F)F)cc2cc(C(=O)NC3(C#N)CC3)c(C)nc21 (centres unmarked) [Compound 10] | 90
CCn1c(C(=O)NC(c2cccc(C(F)(F)F)c2)C(F)(F)F)cc2cc(C(=O)NC3(C#N)CC3)c(Cl)nc21 (centres unmarked) [Compound 11] | 100
CCn1c(C(=O)NC(c2cccc(C(F)(F)F)c2)C(F)(F)F)cc2cc(C(=O)NC3CCC3)c(Cl)nc21 (centres unmarked) [Compound 15] | 90
CCn1c(C(=O)NC(c2ccc(F)c(Cl)c2)C(F)(F)F)cc2cc(C(=O)NC3(C#N)CC3)c(Cl)nc21 (centres unmarked) [Compound 26] | 100
CCn1c(C(=O)NC(c2ccc(F)c(C(F)(F)F)c2)C(F)(F)F)cc2cc(C(=O)NC3(C#N)CC3)c(C)nc21 (centres unmarked) [Compound 75] | 90
